Values of other authors in patent US20040043030A1, “Polymeric delivery systems” (Immunomedics, Inc., priority 2001, published 2004).

Key:
[1] = molecular target: T1, human beta-D-glucuronidase (Homo sapiens, UniProt P08236); settings: Arcamone, Cancer Res., 45:5995, 1985
T1 sequence (P08236 23-651): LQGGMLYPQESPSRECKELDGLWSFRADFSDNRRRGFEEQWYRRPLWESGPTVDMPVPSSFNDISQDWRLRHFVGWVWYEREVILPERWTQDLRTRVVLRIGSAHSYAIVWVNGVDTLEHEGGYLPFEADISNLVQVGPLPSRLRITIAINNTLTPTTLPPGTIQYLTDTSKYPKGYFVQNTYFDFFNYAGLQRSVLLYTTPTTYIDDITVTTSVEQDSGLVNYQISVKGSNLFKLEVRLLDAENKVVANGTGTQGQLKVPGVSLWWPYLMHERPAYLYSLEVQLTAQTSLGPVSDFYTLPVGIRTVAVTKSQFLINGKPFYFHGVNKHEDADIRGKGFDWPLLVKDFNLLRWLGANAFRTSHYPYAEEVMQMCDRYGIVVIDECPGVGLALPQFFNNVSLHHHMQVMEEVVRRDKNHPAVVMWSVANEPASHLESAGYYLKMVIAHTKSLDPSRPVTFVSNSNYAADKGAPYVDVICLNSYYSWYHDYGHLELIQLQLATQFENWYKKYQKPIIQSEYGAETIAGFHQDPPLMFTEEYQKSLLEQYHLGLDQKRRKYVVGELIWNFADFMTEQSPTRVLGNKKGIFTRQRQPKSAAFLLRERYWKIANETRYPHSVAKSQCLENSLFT

tumor cells = settings: relative to doxorubicin

Row | SMILES | substrate for human beta-D-glucuronidase [1] | more toxic to tumor cells than doxorubicin itself (tumor cells)
1 | COc1cccc2c1C(=O)c1c(O)c3c(c(O)c1C2=O)C[C@@](O)(C(=O)CO)C[C@@H]3O[C@H]1C[C@H](N)[C@@H](O)[C@H](C)O1 [epirubicin] | substrate | 
2 | COc1cccc2c1C(=O)c1c(O)c3c(c(O)c1C2=O)C[C@@](O)(C(=O)CO)C[C@@H]3O[C@H]1C[C@H](N2C=CCC2)[C@H](O)[C@H](C)O1 [Example 2-PDOX, 2-pyrrolinodoxorubicin] |  | 100-1000
